Results: PubChem BioAssay AID504479 (NMMLSC, 2011)
The source made the active and inactive calls.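 Rule for the calls: active = GFP ratio vs DMSO below 0.65 in a strain, using the primary screen cutoff set for that strain's protein target; inactive = the rest.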

Assays:
Assay in all cases: TORC1 pathway position of GFP reporter effects – S. cerevisiae, TORC1 bypass vs wild-type strains, mechanism study for yeast TOR pathway modulator project (AID 504479)
Conditions in all cases: fluorescence ratio vs DMSO, at 10 µM
BY4741 = tested on: BY4741
YBR084C-A = tested on: YBR084C-A
YCL025C = tested on: YCL025C
YCR005C = tested on: YCR005C
YKL103C = tested on: YKL103C
YNL142W = tested on: YNL142W
[1] = RPL19A-GFP in TORC1 bypass strain, stronger effect = lower value
[2] = AGP1-GFP in TORC1 bypass strain, stronger effect = higher value
[3] = CIT2-GFP in TORC1 bypass strain, stronger effect = higher value
[4] = LAP4-GFP in TORC1 bypass strain, stronger effect = higher value
[5] = MEP2-GFP in TORC1 bypass strain, stronger effect = higher value

Compound: c1ccc(-c2cccc(-c3ccccn3)n2)nc1
- GFP ratio vs DMSO (BY4741): 0.833 (inactive)
- GFP ratio vs DMSO (YBR084C-A; [1]): 0.963
- GFP ratio vs DMSO (YBR084C-A): 0.926 (inactive)
- GFP ratio vs DMSO (YCL025C; [2]): 0.927
- GFP ratio vs DMSO (YCL025C): 0.984 (inactive)
- GFP ratio vs DMSO (YCR005C; [3]): 0.688
- GFP ratio vs DMSO (YCR005C): 0.683 (inactive)
- GFP ratio vs DMSO (YKL103C; [4]): 1.2
- GFP ratio vs DMSO (YKL103C): 1.5
- GFP ratio vs DMSO (YNL142W; [5]): 1
- GFP ratio vs DMSO (YNL142W): 0.847 (inactive)

Compound: COc1ccc([N+](=O)[O-])c(S(=O)(=O)c2ccccc2)n1
- GFP ratio vs DMSO (BY4741): 0.896 (inactive)
- GFP ratio vs DMSO (YBR084C-A; [1]): 0.924
- GFP ratio vs DMSO (YBR084C-A): 0.967 (inactive)
- GFP ratio vs DMSO (YCL025C; [2]): 0.971
- GFP ratio vs DMSO (YCL025C): 1.14 (inactive)
- GFP ratio vs DMSO (YCR005C; [3]): 0.862
- GFP ratio vs DMSO (YCR005C): 0.792 (inactive)
- GFP ratio vs DMSO (YKL103C; [4]): 1.33
- GFP ratio vs DMSO (YKL103C): 1.97
- GFP ratio vs DMSO (YNL142W; [5]): 0.877
- GFP ratio vs DMSO (YNL142W): 1.03 (inactive)

Compound: O=[N+]([O-])c1ccc(O)c2ncccc12
- GFP ratio vs DMSO (BY4741): 1.4 (inactive)
- GFP ratio vs DMSO (YBR084C-A; [1]): 1.18
- GFP ratio vs DMSO (YBR084C-A): 1.23 (inactive)
- GFP ratio vs DMSO (YCL025C; [2]): 0.99
- GFP ratio vs DMSO (YCL025C): 1.14 (inactive)
- GFP ratio vs DMSO (YCR005C; [3]): 0.748
- GFP ratio vs DMSO (YCR005C): 1.27 (inactive)
- GFP ratio vs DMSO (YKL103C; [4]): 1.88
- GFP ratio vs DMSO (YKL103C): 3.01
- GFP ratio vs DMSO (YNL142W; [5]): 1.06
- GFP ratio vs DMSO (YNL142W): 1.21 (inactive)

Compound: O=C(Oc1ccnc2cc(Cl)ccc12)N1CCCCCC1
- GFP ratio vs DMSO (BY4741): 1 (inactive)
- GFP ratio vs DMSO (YBR084C-A; [1]): 0.82
- GFP ratio vs DMSO (YBR084C-A): 1.19 (inactive)
- GFP ratio vs DMSO (YCL025C; [2]): 1.12
- GFP ratio vs DMSO (YCL025C): 1.78
- GFP ratio vs DMSO (YCR005C; [3]): 0.708
- GFP ratio vs DMSO (YCR005C): 0.635 (inactive)
- GFP ratio vs DMSO (YKL103C; [4]): 0.997
- GFP ratio vs DMSO (YKL103C): 1.15 (inactive)
- GFP ratio vs DMSO (YNL142W; [5]): 0.897
- GFP ratio vs DMSO (YNL142W): 1.96

Compound: CC(C)(C)n1nc(-c2ccc(Cl)cc2)c2c(N)ncnc21
- GFP ratio vs DMSO (BY4741): 0.794 (inactive)
- GFP ratio vs DMSO (YBR084C-A; [1]): 0.612
- GFP ratio vs DMSO (YBR084C-A): 0.547
- GFP ratio vs DMSO (YCL025C; [2]): 0.927
- GFP ratio vs DMSO (YCL025C): 0.943 (inactive)
- GFP ratio vs DMSO (YCR005C; [3]): 0.547
- GFP ratio vs DMSO (YCR005C): 0.359 (inactive)
- GFP ratio vs DMSO (YKL103C; [4]): 1.2
- GFP ratio vs DMSO (YKL103C): 1.48 (inactive)
- GFP ratio vs DMSO (YNL142W; [5]): 0.887
- GFP ratio vs DMSO (YNL142W): 1.04 (inactive)

Compound: O=C(CCc1ccccc1)NNC(=S)NC(=O)c1ccccc1
- GFP ratio vs DMSO (BY4741): 1.32 (inactive)
- GFP ratio vs DMSO (YBR084C-A; [1]): 1.33
- GFP ratio vs DMSO (YBR084C-A): 1.31 (inactive)
- GFP ratio vs DMSO (YCL025C; [2]): 0.882
- GFP ratio vs DMSO (YCL025C): 1.09 (inactive)
- GFP ratio vs DMSO (YCR005C; [3]): 0.847
- GFP ratio vs DMSO (YCR005C): 1.04 (inactive)
- GFP ratio vs DMSO (YKL103C; [4]): 1.88
- GFP ratio vs DMSO (YKL103C): 3.08
- GFP ratio vs DMSO (YNL142W; [5]): 1.28
- GFP ratio vs DMSO (YNL142W): 1.3 (inactive)

Compound: Clc1ccc(N=c2ssnc2Cl)cc1
- GFP ratio vs DMSO (BY4741): 1.09 (inactive)
- GFP ratio vs DMSO (YBR084C-A; [1]): 1.08
- GFP ratio vs DMSO (YBR084C-A): 1.02 (inactive)
- GFP ratio vs DMSO (YCL025C; [2]): 0.884
- GFP ratio vs DMSO (YCL025C): 0.946 (inactive)
- GFP ratio vs DMSO (YCR005C; [3]): 1.02
- GFP ratio vs DMSO (YCR005C): 1.25 (inactive)
- GFP ratio vs DMSO (YKL103C; [4]): 1.29
- GFP ratio vs DMSO (YKL103C): 1.64
- GFP ratio vs DMSO (YNL142W; [5]): 1.08
- GFP ratio vs DMSO (YNL142W): 1.04 (inactive)

Compound: Cc1ccc(C(=O)NNC(=S)NC(=O)COc2ccccc2)cc1
- GFP ratio vs DMSO (BY4741): 1.29 (inactive)
- GFP ratio vs DMSO (YBR084C-A; [1]): 1.22
- GFP ratio vs DMSO (YBR084C-A): 1.27 (inactive)
- GFP ratio vs DMSO (YCL025C; [2]): 0.914
- GFP ratio vs DMSO (YCL025C): 1.11 (inactive)
- GFP ratio vs DMSO (YCR005C; [3]): 0.861
- GFP ratio vs DMSO (YCR005C): 0.988 (inactive)
- GFP ratio vs DMSO (YKL103C; [4]): 1.45
- GFP ratio vs DMSO (YKL103C): 2.49
- GFP ratio vs DMSO (YNL142W; [5]): 1.25
- GFP ratio vs DMSO (YNL142W): 1.22 (inactive)

Compound: Cc1ccc(S(=O)(=O)c2ncccc2[N+](=O)[O-])cc1
- GFP ratio vs DMSO (BY4741): 1.09 (inactive)
- GFP ratio vs DMSO (YBR084C-A; [1]): 0.99
- GFP ratio vs DMSO (YBR084C-A): 1.04 (inactive)
- GFP ratio vs DMSO (YCL025C; [2]): 0.888
- GFP ratio vs DMSO (YCL025C): 0.84 (inactive)
- GFP ratio vs DMSO (YCR005C; [3]): 0.847
- GFP ratio vs DMSO (YCR005C): 0.688 (inactive)
- GFP ratio vs DMSO (YKL103C; [4]): 1.5
- GFP ratio vs DMSO (YKL103C): 1.82
- GFP ratio vs DMSO (YNL142W; [5]): 1.01
- GFP ratio vs DMSO (YNL142W): 0.788 (inactive)

Compound: O=[N+]([O-])c1cc(Cl)c2cccnc2c1O
- GFP ratio vs DMSO (BY4741): 0.755 (inactive)
- GFP ratio vs DMSO (YBR084C-A; [1]): 0.937
- GFP ratio vs DMSO (YBR084C-A): 1.04 (inactive)
- GFP ratio vs DMSO (YCL025C; [2]): 0.738
- GFP ratio vs DMSO (YCL025C): 0.999 (inactive)
- GFP ratio vs DMSO (YCR005C; [3]): 0.67
- GFP ratio vs DMSO (YCR005C): 0.937 (inactive)
- GFP ratio vs DMSO (YKL103C; [4]): 1.17
- GFP ratio vs DMSO (YKL103C): 1.52
- GFP ratio vs DMSO (YNL142W; [5]): 0.964
- GFP ratio vs DMSO (YNL142W): 0.937 (inactive)

Compound: Cc1ccc(C(c2cc(Cl)c3cccnc3c2O)N2CCN(C)CC2)cc1 (stereo unspecified)
- GFP ratio vs DMSO (BY4741): 0.736 (inactive)
- GFP ratio vs DMSO (YBR084C-A; [1]): 0.949
- GFP ratio vs DMSO (YBR084C-A): 0.938 (inactive)
- GFP ratio vs DMSO (YCL025C; [2]): 0.652
- GFP ratio vs DMSO (YCL025C): 0.76 (inactive)
- GFP ratio vs DMSO (YCR005C; [3]): 0.583
- GFP ratio vs DMSO (YCR005C): 0.808 (inactive)
- GFP ratio vs DMSO (YKL103C; [4]): 1.23
- GFP ratio vs DMSO (YKL103C): 1.63
- GFP ratio vs DMSO (YNL142W; [5]): 1.03
- GFP ratio vs DMSO (YNL142W): 0.862 (inactive)
